Test results published in patent US12655125B2 (SIRONAX LTD., priority 2020, dated 2026).

system: HT-29 cells; assay: HT29 Cells 0FBS Assay In Vitro (TNF-α/SMAC mimetic/zVAD-FMK induced necroptosis, CellTiter-Glo cell viability); assay type: cell-based; conditions: Homo sapiens; HT-29 cells, FBS free medium, TNF-α (10 ng/ml), SMAC mimetic (6 uM), zVAD-FMK (10 μM), 20 hours; geometric mean EC50; read-out: Cell activity (EC50) of Compounds 117-281
In short: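 HT-29 cells (5,000/well, seeded overnight) in serum-free McCoy's 5A were stimulated with TNF-α 10 ng/ml, SMAC mimetic 6 μM and zVAD-FMK 10 μM to induce necroptosis. Compound added as 10-point 3-fold series for 20 h at 37° C. CellTiter-Glo luminescence gives viability; EC50 is geometric mean of duplicate dose-responses.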

| Compound | EC50 |
| --- | --- |
| Cc1nn(-c2cc(OC3CN(C(=O)N4N=CC[C@H]4c4cc(F)cc(F)c4)C3)c(F)cn2)c(C)c1S(=O)(=O)NC1CCCCC1 [compound 242, (S)—N-cyclohexyl-1-(4-((1-(5-(3,5-difluorophenyl)-4,5-dihydro-1H-pyrazole-1-carbonyl)azetidin-3-yl)oxy)-5-fluoropyridin-2-yl)-3,5-dimethyl-1H-pyrazole-4-sulfonamide] | 0.1 to 100 nM |
| Cc1nn(-c2cc(OC3CN(C(=O)N4N=CC[C@H]4c4cc(F)cc(F)c4)C3)c(F)cn2)c(C)c1S(=O)(=O)Nc1ccccc1 [compound 243, (S)-1-(4-((1-(5-(3,5-difluorophenyl)-4,5-dihydro-1H-pyrazole-1-carbonyl)azetidin-3-yl)oxy)-5-fluoropyridin-2-yl)-3,5-dimethyl-N-phenyl-1H-pyrazole-4-sulfonamide] | 0.1 to 100 nM |
| Cc1nn(-c2cc(OC3CN(C(=O)N4N=CC[C@H]4c4cc(F)cc(F)c4)C3)c(F)cn2)c(C)c1S(=O)(=O)NCCO [compound 244, (S)-1-(4-((1-(5-(3,5-difluorophenyl)-4,5-dihydro-1H-pyrazole-1-carbonyl)azetidin-3-yl)oxy)-5-fluoropyridin-2-yl)-N-(2-hydroxyethyl)-3,5-dimethyl-1H-pyrazole-4-sulfonamide] | 0.1 to 100 nM |
| Cc1c(-c2cc(OC3CN(C(=O)N4N=CC[C@H]4c4cc(F)cc(F)c4)C3)c(F)cn2)nn(C)c1C(=O)O [compound 245, (S)-3-(4-((1-(5-(3,5-difluorophenyl)-4,5-dihydro-1H-pyrazole-1-carbonyl)azetidin-3-yl)oxy)-5-fluoropyridin-2-yl)-1,4-dimethyl-1H-pyrazole-5-carboxylic acid] | 0.1 to 100 nM |
| CNC(=O)c1c(C)c(-c2cc(OC3CN(C(=O)N4N=CC[C@H]4c4cc(F)cc(F)c4)C3)c(F)cn2)nn1C [compound 246, (S)-3-(4-((1-(5-(3,5-difluorophenyl)-4,5-dihydro-1H-pyrazole-1-carbonyl)azetidin-3-yl)oxy)-5-fluoropyridin-2-yl)-N,1,4-trimethyl-1H-pyrazole-5-carboxamide] | 0.1 to 100 nM |
| Cc1c(-c2cc(OC3CN(C(=O)N4N=CC[C@H]4c4cc(F)cc(F)c4)C3)c(F)cn2)nn(C)c1C(=O)NC1CCOCC1 [compound 247, (S)-3-(4-((1-(5-(3,5-difluorophenyl)-4,5-dihydro-1H-pyrazole-1-carbonyl)azetidin-3-yl)oxy)-5-fluoropyridin-2-yl)-1,4-dimethyl-N-(tetrahydro-2H-pyran-4-yl)-1H-pyrazole-5-carboxamide] | 0.1 to 100 nM |
| CONS(=O)(=O)c1c(C)nn(-c2cc(OC3CN(C(=O)N4N=CC[C@H]4c4cc(F)cc(F)c4)C3)c(F)cn2)c1C [compound 248, (S)-1-(4-((1-(5-(3,5-difluorophenyl)-4,5-dihydro-1H-pyrazole-1-carbonyl)azetidin-3-yl)oxy)-5-fluoropyridin-2-yl)-N-methoxy-3,5-dimethyl-1H-pyrazole-4-sulfonamide] | 0.1 to 100 nM |
| Cc1nn(-c2cc(OC3CN(C(=O)N4N=CC[C@H]4c4cc(F)cc(F)c4)C3)c(F)cn2)c(C)c1C(=O)NC1CCC1 [compound 249, (S)—N-cyclobutyl-1-(4-((1-(5-(3,5-difluorophenyl)-4,5-dihydro-1H-pyrazole-1-carbonyl)azetidin-3-yl)oxy)-5-fluoropyridin-2-yl)-3,5-dimethyl-1H-pyrazole-4-carboxamide] | 0.1 to 100 nM |
| Cn1nccc1-c1cc(OC2CN(C(=O)N3N=CCC3c3cc(F)cc(F)c3)C2)c(F)cn1 (centres unmarked) [compound 250, (5-(3,5-difluorophenyl)-4,5-dihydro-1H-pyrazol-1-yl)(3-((5-fluoro-2-(1-methyl-1H-pyrazol-5-yl)pyridin-4-yl)oxy)azetidin-1-yl)methanone] | 0.1 to 100 nM |
| Cc1nn(-c2cc(OC3CN(C(=O)N4N=CC[C@H]4c4cc(F)cc(F)c4)C3)c(F)cn2)c(C)c1C [compound 251, (S)-(5-(3,5-difluorophenyl)-4,5-dihydro-1H-pyrazol-1-yl)(3-((5-fluoro-2-(3,4,5-trimethyl-1H-pyrazol-1-yl)pyridin-4-yl)oxy)azetidin-1-yl)methanone] | 0.1 to 100 nM |
| Cc1nn(-c2cc(OC3CN(C(=O)N4N=CC[C@H]4c4cc(F)cc(F)c4)C3)c(F)cn2)c(C)c1C(=O)NO [compound 252, (S)-1-(4-((1-(5-(3,5-difluorophenyl)-4,5-dihydro-1H-pyrazole-1-carbonyl)azetidin-3-yl)oxy)-5-fluoropyridin-2-yl)-N-hydroxy-3,5-dimethyl-1H-pyrazole-4-carboxamide] | 0.1 to 100 nM |
| Cc1nn(-c2cc(OC3CN(C(=O)N4N=CC[C@H]4c4cc(F)cc(F)c4)C3)c(F)cn2)c(C)c1C(=O)NC#N [compound 253, (S)—N-cyano-1-(4-((1-(5-(3,5-difluorophenyl)-4,5-dihydro-1H-pyrazole-1-carbonyl)azetidin-3-yl)oxy)-5-fluoropyridin-2-yl)-3,5-dimethyl-1H-pyrazole-4-carboxamide] | 0.1 to 100 nM |
| Cc1nn(-c2cc(OC3CN(C(=O)N4N=CC[C@H]4c4cc(F)cc(F)c4)C3)c(F)cn2)c(C)c1C(=O)N[C@H]1C[C@@H](O)C1 [compound 254, 1-(4-((1-((S)-5-(3,5-difluorophenyl)-4,5-dihydro-1H-pyrazole-1-carbonyl)azetidin-3-yl)oxy)-5-fluoropyridin-2-yl)-N-((1s,3s)-3-hydroxycyclobutyl)-3,5-dimethyl-1H-pyrazole-4-carboxamide] | 0.1 to 100 nM |
| Cc1nn(-c2cc(OC3CN(C(=O)N4N=CC[C@H]4c4cc(F)cc(F)c4)C3)c(F)cn2)c(C)c1C(=O)N[C@H]1C[C@H](O)C1 [compound 255, 1-(4-((1-((S)-5-(3,5-difluorophenyl)-4,5-dihydro-1H-pyrazole-1-carbonyl)azetidin-3-yl)oxy)-5-fluoropyridin-2-yl)-N-((1r,3r)-3-hydroxycyclobutyl)-3,5-dimethyl-1H-pyrazole-4-carboxamide] | 0.1 to 100 nM |
| Cc1nn(-c2cc(OC3CN(C(=O)N4N=CC[C@H]4c4cc(F)cc(F)c4)C3)c(F)cn2)c(C)c1C(=O)NCCN(C)C [compound 256, (S)-1-(4-((1-(5-(3,5-difluorophenyl)-4,5-dihydro-1H-pyrazole-1-carbonyl)azetidin-3-yl)oxy)-5-fluoropyridin-2-yl)-N-(2-(dimethylamino)ethyl)-3,5-dimethyl-1H-pyrazole-4-carboxamide] | 0.1 to 100 nM |
| Cc1nn(-c2cc(OC3CN(C(=O)N4N=CC[C@H]4c4cc(F)cc(F)c4)C3)c(F)cn2)c(C)c1C(=O)N[C@H]1CCOC1 [compound 257, 1-(4-((1-((S)-5-(3,5-difluorophenyl)-4,5-dihydro-1H-pyrazole-1-carbonyl)azetidin-3-yl)oxy)-5-fluoropyridin-2-yl)-3,5-dimethyl-N—((S)-tetrahydrofuran-3-yl)-1H-pyrazole-4-carboxamide] | 0.1 to 100 nM |
| Cc1nn(-c2cc(OC3CN(C(=O)N4N=CC[C@H]4c4cc(F)cc(F)c4)C3)c(F)cn2)c(C)c1C(=O)N[C@@H]1CCOC1 [compound 258, 1-(4-((1-((S)-5-(3,5-difluorophenyl)-4,5-dihydro-1H-pyrazole-1-carbonyl)azetidin-3-yl)oxy)-5-fluoropyridin-2-yl)-3,5-dimethyl-N—((R)-tetrahydrofuran-3-yl)-1H-pyrazole-4-carboxamide] | 0.1 to 100 nM |
| Cc1nn(-c2cc(OC3CN(C(=O)N4N=CC[C@H]4c4cc(F)cc(F)c4)C3)c(F)cn2)c(C)c1CCO [compound 259, (S)-(5-(3,5-difluorophenyl)-4,5-dihydro-1H-pyrazol-1-yl)(3-((5-fluoro-2-(4-(2-hydroxyethyl)-3,5-dimethyl-1H-pyrazol-1-yl)pyridin-4-yl)oxy)azetidin-1-yl)methanone] | 0.1 to 100 nM |
| O=C(N1CC(Oc2cc(-c3ccn[nH]3)ncc2F)C1)N1N=CC[C@H]1c1cc(F)cc(F)c1 [compound 261, (S)-(5-(3,5-difluorophenyl)-4,5-dihydro-1H-pyrazol-1-yl)(3-((5-fluoro-2-(1H-pyrazol-5-yl)pyridin-4-yl)oxy)azetidin-1-yl)methanone] | 0.1 to 100 nM |
| Cc1c(-c2cc(OC3CN(C(=O)N4N=CC[C@H]4c4cc(F)cc(F)c4)C3)c(F)cn2)nn(C)c1C(=O)NC1COC1 [compound 262, (S)-3-(4-((1-(5-(3,5-difluorophenyl)-4,5-dihydro-1H-pyrazole-1-carbonyl)azetidin-3-yl)oxy)-5-fluoropyridin-2-yl)-1,4-dimethyl-N-(oxetan-3-yl)-1H-pyrazole-5-carboxamide] | 0.1 to 100 nM |
| Cc1c(-c2cc(OC3CN(C(=O)N4N=CC[C@H]4c4cc(F)cc(F)c4)C3)c(F)cn2)nn(C)c1C(=O)NC1CC(O)C1 (stereo partly drawn) [compound 263, (S)-3-(4-((1-(5-(3,5-difluorophenyl)-4,5-dihydro-1H-pyrazole-1-carbonyl)azetidin-3-yl)oxy)-5-fluoropyridin-2-yl)-N-(3-hydroxycyclobutyl)-1,4-dimethyl-1H-pyrazole-5-carboxamide] | 0.1 to 100 nM |
| Cc1c(-c2cc(OC3CN(C(=O)N4N=CC[C@H]4c4cc(F)cc(F)c4)C3)c(F)cn2)nn(C)c1C(=O)NC1CCC1 [compound 264, (S)—N-cyclobutyl-3-(4-((1-(5-(3,5-difluorophenyl)-4,5-dihydro-1H-pyrazole-1-carbonyl)azetidin-3-yl)oxy)-5-fluoropyridin-2-yl)-1,4-dimethyl-1H-pyrazole-5-carboxamide] | 0.1 to 100 nM |
| Cc1c(-c2cc(OC3CN(C(=O)N4N=CC[C@H]4c4cc(F)cc(F)c4)C3)c(F)cn2)nn(C)c1C(=O)NCCO [compound 265, (S)-3-(4-((1-(5-(3,5-difluorophenyl)-4,5-dihydro-1H-pyrazole-1-carbonyl)azetidin-3-yl)oxy)-5-fluoropyridin-2-yl)-N-(2-hydroxyethyl)-1,4-dimethyl-1H-pyrazole-5-carboxamide] | 0.1 to 100 nM |
